Data from US11767310B2, “Nicotinamide RIPK1 inhibitors” (AbbVie Inc., priority 2021, dated 2023).
Read-outs that look alike come from different tables or passages of the source.

What was measured:
Experiment in all cases: Kinase binding screen
Settings in all cases: read-out: Percent Control at 100 nM Compound Concentration
ABL2 = ABL2 (Homo sapiens (Human), UniProt P42684)
ARK5 = ARK5 (Homo sapiens (Human), UniProt O60285)
AURKA = AURKA (Homo sapiens (Human), UniProt O14965)
CDK8 = CDK8 (Homo sapiens (Human), UniProt P49336)
CSNK1D = CSNK1D (Homo sapiens (Human), UniProt P48730)
FLT3 = FLT3 (Homo sapiens (Human), UniProt P36888)
Chain of FLT3 (P36888 27-993): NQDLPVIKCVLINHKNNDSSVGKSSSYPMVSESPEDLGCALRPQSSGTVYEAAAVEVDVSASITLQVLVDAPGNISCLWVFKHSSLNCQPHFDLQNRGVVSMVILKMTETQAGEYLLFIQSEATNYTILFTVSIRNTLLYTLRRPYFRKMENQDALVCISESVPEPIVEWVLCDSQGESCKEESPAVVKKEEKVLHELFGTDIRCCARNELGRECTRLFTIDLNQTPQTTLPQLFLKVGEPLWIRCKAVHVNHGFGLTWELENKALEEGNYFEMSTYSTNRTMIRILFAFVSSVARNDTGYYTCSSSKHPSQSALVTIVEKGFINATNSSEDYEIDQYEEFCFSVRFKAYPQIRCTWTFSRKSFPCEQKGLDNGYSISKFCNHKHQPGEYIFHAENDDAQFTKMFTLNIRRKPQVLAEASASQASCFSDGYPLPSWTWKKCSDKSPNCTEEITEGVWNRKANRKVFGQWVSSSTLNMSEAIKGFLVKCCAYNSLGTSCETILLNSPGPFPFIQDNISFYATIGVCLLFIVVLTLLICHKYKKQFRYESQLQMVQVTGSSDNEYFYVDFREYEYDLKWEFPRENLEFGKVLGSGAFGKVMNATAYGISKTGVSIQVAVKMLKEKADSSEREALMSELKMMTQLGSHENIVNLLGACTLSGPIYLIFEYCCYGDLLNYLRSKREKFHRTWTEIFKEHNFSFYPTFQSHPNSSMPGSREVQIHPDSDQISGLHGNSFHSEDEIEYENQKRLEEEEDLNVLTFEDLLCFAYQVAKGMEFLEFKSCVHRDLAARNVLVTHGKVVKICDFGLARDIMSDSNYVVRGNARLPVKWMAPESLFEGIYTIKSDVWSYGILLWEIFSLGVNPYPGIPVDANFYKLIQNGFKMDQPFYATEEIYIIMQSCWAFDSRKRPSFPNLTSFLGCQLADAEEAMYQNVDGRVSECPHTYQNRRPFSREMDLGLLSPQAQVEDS

GRK1 = GRK1 (Homo sapiens (Human), UniProt Q15835)
KIT = KIT (Homo sapiens (Human), UniProt P10721)
MAP4K2 = MAP4K2 (Homo sapiens (Human), UniProt Q12851)
MEK6 = MEK6 (Homo sapiens (Human), UniProt P52564)
MELK = MELK (Homo sapiens (Human), UniProt Q14680)
MLK3 = MLK3 (Homo sapiens (Human), UniProt Q16584)
Chain of MLK3 (Q16584 whole entry): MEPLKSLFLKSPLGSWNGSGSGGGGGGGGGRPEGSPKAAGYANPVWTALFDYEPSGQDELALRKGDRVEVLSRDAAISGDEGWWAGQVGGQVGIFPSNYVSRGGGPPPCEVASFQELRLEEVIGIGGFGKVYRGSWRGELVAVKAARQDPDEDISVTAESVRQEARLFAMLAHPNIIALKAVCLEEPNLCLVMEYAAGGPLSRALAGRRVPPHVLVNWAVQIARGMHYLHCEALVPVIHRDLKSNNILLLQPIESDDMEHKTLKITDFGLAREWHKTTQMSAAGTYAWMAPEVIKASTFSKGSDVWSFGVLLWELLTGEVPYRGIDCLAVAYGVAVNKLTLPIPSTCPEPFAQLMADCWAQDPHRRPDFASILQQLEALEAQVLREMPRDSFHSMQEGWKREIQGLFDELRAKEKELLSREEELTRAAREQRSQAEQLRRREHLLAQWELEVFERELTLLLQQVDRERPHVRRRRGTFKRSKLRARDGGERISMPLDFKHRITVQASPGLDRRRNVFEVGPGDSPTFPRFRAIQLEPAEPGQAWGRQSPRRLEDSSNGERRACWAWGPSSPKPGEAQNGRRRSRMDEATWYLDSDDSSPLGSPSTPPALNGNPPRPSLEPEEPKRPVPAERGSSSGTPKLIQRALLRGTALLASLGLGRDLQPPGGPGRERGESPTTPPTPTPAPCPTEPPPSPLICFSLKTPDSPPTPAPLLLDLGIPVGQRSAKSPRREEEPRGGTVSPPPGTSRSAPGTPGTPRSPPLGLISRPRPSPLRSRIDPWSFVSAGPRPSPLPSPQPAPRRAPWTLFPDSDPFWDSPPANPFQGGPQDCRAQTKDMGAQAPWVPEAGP

MY03B = MY03B (Homo sapiens (Human), UniProt Q8WXR4)
NEK6 = NEK6 (Homo sapiens (Human), UniProt Q9HC98)
Chain of NEK6 (Q9HC98 whole entry): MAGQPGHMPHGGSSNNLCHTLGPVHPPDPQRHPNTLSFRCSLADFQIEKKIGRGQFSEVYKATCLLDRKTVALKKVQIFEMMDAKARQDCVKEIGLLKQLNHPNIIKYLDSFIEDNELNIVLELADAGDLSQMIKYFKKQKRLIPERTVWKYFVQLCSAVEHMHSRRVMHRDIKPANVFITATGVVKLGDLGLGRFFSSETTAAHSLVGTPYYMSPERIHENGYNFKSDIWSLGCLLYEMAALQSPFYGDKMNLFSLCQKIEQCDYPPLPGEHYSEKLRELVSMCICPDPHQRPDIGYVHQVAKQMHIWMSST

PAK3 = PAK3 (Homo sapiens (Human), UniProt O75914)
CDC2L5 = CDC2L5 (Homo sapiens (Human), UniProt Q14004)
Description: (§1) The screening method uses an immobilized ligand on a solid support, a DNA-tagged kinase, and a test compound. Test compounds that bind the kinase active site and directly (sterically) or indirectly (allosterically) prevent kinase binding to an immobilized ligand on a solid support will reduce the amount of kinase captured on the solid support. […] Screening “hits” are identified by measuring the amount of kinase captured in test compound versus control samples by using a quantitative, precise and ultra-sensitive qPCR method that detects the DNA label associated with the kinase. In a similar manner, dissociation constants (Kd) for test compound-kinase interactions are calculated by measuring the amount of kinase captured on the solid support as a function of the test compound concentration.
(§2) For most assays, kinase-tagged T7 phage strains were grown in parallel in 24-well blocks in an E. coli host derived from the BL21 strain. E. coli were grown to log-phase and infected with T7 phage from a frozen stock (multiplicity of infection=0.4) and incubated with shaking at 32° C. until lysis (90-150 minutes). The lysates were centrifuged (6,000×g) and filtered ([…]) to remove cell debris. The remaining kinases were produced in HEK-293 cells and subsequently tagged with DNA for qPCR detection. Streptavidin-coated magnetic beads were treated with biotinylated small molecule ligands for 30 minutes at room temperature to generate affinity resins for kinase assays. The liganded beads were blocked with excess biotin and washed with blocking buffer (SeaBlock (Pierce), 1% BSA, 0.05% Tween 20, 1 mM DTT) to remove unbound ligand and to reduce non-specific phage binding. […] Test compounds were prepared as 40× stocks in 100% DMSO and directly diluted into the assay. All reactions were performed in polypropylene 384-well plates in a final volume of 0.02 mL. […] The kinase concentration in the eluates was measured by qPCR.
(§3) The compounds were screened at 100 nM concentration, and results for the binding interactions are shown below in Table D as percent control, where lower numbers indicate stronger hits. The calculation for percent control is shown below. The negative control was DMSO (100% control), and a control compound was used as positive control (0% control).

PFCDPK1(P.falciparum) = PFCDPK1(P.falciparum) (Plasmodium falciparum (isolate 3D7), UniProt P62344)
Description: as §1, §2, §3

PFPK5(P.falciparum) = PFPK5(P.falciparum) (Plasmodium falciparum (isolate 3D7), UniProt P61075)
Description: as §1, §2, §3

PRP4 = PRP4 (Homo sapiens (Human), UniProt Q13523)
Description: as §1, §2, §3

PIK3C2B = PIK3C2B (Homo sapiens (Human), UniProt O00750)
PLK2 = PLK2 (Homo sapiens (Human), UniProt Q9NYY3)
Chain of PLK2 (Q9NYY3 whole entry): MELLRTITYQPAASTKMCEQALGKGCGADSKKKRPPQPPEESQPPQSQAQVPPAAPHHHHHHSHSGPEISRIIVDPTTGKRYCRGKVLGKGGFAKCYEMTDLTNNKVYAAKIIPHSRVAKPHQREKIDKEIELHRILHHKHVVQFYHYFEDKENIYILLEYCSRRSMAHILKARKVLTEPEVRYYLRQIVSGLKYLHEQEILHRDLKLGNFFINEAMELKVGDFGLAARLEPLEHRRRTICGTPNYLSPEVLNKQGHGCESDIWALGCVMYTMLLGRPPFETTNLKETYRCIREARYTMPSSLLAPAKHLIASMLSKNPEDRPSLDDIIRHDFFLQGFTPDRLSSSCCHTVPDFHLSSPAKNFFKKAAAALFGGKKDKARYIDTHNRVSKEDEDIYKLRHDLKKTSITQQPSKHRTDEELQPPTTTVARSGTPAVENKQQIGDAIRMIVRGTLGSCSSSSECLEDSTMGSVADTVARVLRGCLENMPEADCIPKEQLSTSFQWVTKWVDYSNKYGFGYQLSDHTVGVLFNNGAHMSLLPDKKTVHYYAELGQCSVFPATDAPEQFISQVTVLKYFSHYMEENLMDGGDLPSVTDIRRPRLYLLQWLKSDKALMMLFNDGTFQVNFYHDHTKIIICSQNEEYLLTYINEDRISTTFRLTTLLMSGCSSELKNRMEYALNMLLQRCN

TYRO3 = TYRO3 (Homo sapiens (Human), UniProt Q06418)
Chain of TYRO3 (Q06418 41-890): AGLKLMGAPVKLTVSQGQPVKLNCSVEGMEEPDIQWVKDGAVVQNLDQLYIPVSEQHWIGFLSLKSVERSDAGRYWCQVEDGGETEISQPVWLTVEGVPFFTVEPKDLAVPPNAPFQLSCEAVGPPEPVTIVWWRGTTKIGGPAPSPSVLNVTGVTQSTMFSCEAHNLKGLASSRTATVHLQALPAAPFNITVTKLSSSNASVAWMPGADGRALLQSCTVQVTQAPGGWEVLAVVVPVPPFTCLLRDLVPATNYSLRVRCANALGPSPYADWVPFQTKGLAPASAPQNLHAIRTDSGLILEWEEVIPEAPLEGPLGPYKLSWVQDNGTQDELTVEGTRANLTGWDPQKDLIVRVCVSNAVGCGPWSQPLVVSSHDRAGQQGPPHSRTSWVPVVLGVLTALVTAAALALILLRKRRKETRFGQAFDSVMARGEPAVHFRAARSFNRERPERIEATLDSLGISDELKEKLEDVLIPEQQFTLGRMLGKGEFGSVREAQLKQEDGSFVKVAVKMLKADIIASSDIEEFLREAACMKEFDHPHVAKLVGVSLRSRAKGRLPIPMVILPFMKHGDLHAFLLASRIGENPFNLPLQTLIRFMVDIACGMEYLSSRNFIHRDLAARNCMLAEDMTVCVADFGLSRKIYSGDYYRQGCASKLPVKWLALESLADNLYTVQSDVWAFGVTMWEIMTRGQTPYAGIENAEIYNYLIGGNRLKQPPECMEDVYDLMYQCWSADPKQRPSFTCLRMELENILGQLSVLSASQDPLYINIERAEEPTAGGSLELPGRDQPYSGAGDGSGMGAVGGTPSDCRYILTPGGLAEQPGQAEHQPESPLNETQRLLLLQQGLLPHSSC

ULK2 = ULK2 (Homo sapiens (Human), UniProt Q8IYT8)

Chain of ABL2 (P42684 whole entry): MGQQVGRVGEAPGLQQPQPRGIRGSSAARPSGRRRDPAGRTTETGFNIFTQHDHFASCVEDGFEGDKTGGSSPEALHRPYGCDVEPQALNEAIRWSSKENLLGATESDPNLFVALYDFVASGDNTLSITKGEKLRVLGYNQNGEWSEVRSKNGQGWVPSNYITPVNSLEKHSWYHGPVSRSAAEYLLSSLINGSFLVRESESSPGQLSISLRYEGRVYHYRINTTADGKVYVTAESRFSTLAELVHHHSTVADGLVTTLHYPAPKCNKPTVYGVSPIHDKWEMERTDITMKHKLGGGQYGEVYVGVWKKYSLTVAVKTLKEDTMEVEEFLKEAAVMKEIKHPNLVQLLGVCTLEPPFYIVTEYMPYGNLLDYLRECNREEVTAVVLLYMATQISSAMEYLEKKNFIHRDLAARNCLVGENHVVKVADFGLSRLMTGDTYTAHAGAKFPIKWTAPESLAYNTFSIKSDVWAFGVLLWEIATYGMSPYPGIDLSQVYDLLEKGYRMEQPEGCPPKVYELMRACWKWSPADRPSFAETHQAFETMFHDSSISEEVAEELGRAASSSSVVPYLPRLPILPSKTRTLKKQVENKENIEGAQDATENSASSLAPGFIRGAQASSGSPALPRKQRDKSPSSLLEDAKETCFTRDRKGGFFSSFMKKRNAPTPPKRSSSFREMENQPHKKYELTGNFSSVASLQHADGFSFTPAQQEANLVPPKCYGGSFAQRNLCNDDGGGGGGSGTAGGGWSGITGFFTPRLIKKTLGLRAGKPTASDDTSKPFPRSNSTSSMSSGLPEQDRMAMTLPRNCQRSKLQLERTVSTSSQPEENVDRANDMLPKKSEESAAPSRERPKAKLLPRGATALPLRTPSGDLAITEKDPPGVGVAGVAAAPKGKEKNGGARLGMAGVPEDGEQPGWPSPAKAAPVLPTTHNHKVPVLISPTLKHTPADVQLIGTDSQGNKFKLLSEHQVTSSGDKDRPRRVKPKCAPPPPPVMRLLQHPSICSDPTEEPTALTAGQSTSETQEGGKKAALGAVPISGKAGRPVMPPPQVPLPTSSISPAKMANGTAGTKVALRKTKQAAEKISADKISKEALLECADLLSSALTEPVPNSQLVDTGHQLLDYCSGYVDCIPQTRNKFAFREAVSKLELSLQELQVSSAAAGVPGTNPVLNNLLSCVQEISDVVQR

CN(C[C@@H](O)Cc1ccccc1)C(=O)c1cncc(C#Cc2cnn(C(F)F)c2)c1 [Example 2, (S)-5-((1-(difluoromethyl)-1H-pyrazol-4-yl)ethynyl)-N-(2-hydroxy-3-phenylpropyl)-N-methylnicotinamide]
remaining activity at 0.1 µM (ABL2; ABL2): 100%
remaining activity at 0.1 µM (ARK5; ARK5): 100%
remaining activity at 0.1 µM (AURKA; AURKA): 100%
remaining activity at 0.1 µM (CDK8; CDK8): 10%
remaining activity at 0.1 µM (CSNK1D; CSNK1D): 100%
remaining activity at 0.1 µM (FLT3; FLT3): 100%
remaining activity at 0.1 µM (GRK1; GRK1): 100%
remaining activity at 0.1 µM (KIT; KIT): 100%
remaining activity at 0.1 µM (MAP4K2; MAP4K2): 88%
remaining activity at 0.1 µM (MEK6; MEK6): 100%
remaining activity at 0.1 µM (MELK; MELK): 77%
remaining activity at 0.1 µM (MLK3; MLK3): 95%
remaining activity at 0.1 µM (MY03B; MY03B): 95%
remaining activity at 0.1 µM (NEK6; NEK6): 100%
remaining activity at 0.1 µM (PAK3; PAK3): 71%
remaining activity at 0.1 µM (CDC2L5): 100%
remaining activity at 0.1 µM (PFCDPK1(P.falciparum)): 95%
remaining activity at 0.1 µM (PFPK5(P.falciparum)): 90%
remaining activity at 0.1 µM (PRP4): 89%
remaining activity at 0.1 µM (PIK3C2B; PIK3C2B): 100%
remaining activity at 0.1 µM (PLK2; PLK2): 98%
remaining activity at 0.1 µM (TYRO3; TYRO3): 99%
remaining activity at 0.1 µM (ULK2; ULK2): 100%

CN(C[C@H](Cc1ccccc1)OP(=O)(O)O)C(=O)c1cncc(C#Cc2cnn(C(F)F)c2)c1 [Example 19, (S)-1-(5-((1-(difluoromethyl)-1H-pyrazol-4-yl)ethynyl)-N-methylnicotinamido)-3-phenylpropan-2-yl dihydrogen phosphate]
remaining activity at 0.1 µM (ABL2): 98%
remaining activity at 0.1 µM (ARK5): 100%
remaining activity at 0.1 µM (AURKA): 100%
remaining activity at 0.1 µM (CDK8): 98%
remaining activity at 0.1 µM (CSNK1D): 100%
remaining activity at 0.1 µM (FLT3): 100%
remaining activity at 0.1 µM (GRK1): 98%
remaining activity at 0.1 µM (KIT): 99%
remaining activity at 0.1 µM (MAP4K2): 83%
remaining activity at 0.1 µM (MEK6): 96%
remaining activity at 0.1 µM (MELK): 83%
remaining activity at 0.1 µM (MLK3): 89%
remaining activity at 0.1 µM (MY03B): 79%
remaining activity at 0.1 µM (NEK6): 100%
remaining activity at 0.1 µM (PAK3): 100%
remaining activity at 0.1 µM (CDC2L5): 100%
remaining activity at 0.1 µM (PFCDPK1(P.falciparum)): 96%
remaining activity at 0.1 µM (PFPK5(P.falciparum)): 100%
remaining activity at 0.1 µM (PRP4): 82%
remaining activity at 0.1 µM (PIK3C2B): 100%
remaining activity at 0.1 µM (PLK2): 91%
remaining activity at 0.1 µM (TYRO3): 100%
remaining activity at 0.1 µM (ULK2): 94%
